Data reported in patent publication US11896704B2, “Compounds useful for the treatment and/or care of the skin, hair, nails and/or mucous membranes” (LUBRIZOL ADVANCED MATERIALS, INC., priority 2017, dated 2024).

What was measured:
[1] = system: mitochondrial complex I (NADH dehydrogenase); assay: Mitochondrial complex I activity in human dermal fibroblasts, colorimetric assay; type: cell-based; details: HDFa, 48 hours
Protocol: Inhibition of Mitochondrial Complex I Activity Using an Assay Based on Colorimetric Detection. Human Dermal Fibroblasts from adult (HDFa, Life Technologies) are seeded at a density of 750.000 cells/75 cm^2 flask (one flask per condition) in culture medium M106 with Low Serum Growth Supplement (Life Technologies). Cells are grown during 8 days at 37° C. in 5% CO2 humidified air. Then, medium is removed and cells are treated with scalar dilutions of the peptide […] (PEP-1, H-[SEQ ID. NO. 2]-NH2) at 1, 0.5 and 0.1 mg/ml in culture medium during 48 hours at 37° C. in 5% CO2 humidified air. Non-treated cells incubated in culture medium alone are used as basal conditions. […] After 48 hours of treatment, cells are detached using trypsin and resuspended in 60 ul of Phosphate buffer saline (Sigma). Total protein concentration is measured by a Pierce BCA Protein Assay Kit (BCA Assay, Thermo Scientific) following manufacturer's protocol to adjust the final protein concentration between 700-1000 ug/ml. Briefly, standards and samples are dispensed and Working Reagent is added to the samples. After 30 minutes of incubation at 37° C., absorbance is measured with a microplate reader (Clariostar®, BMG) at 562 nm. Mitochondrial complex I activity is measured with Complex I enzyme activity microplate assay Kit (Abcam) according to the manufacture's protocol. This assay follows the oxidation of NADH to NAD coupled to the reduction of a specific colorimetric dye, leading to an increase in absorbance at 450 nm. In brief, 200 ul of each sample (adjusted to 700-1000 ug/ml of total protein amount) is incubated for 3 hours. After that, wells are washed several times and incubated with Assay Solution provided with the kit (composed by NADH and the specific dye). For the determination of mitochondrial complex I activity, colorimetric increase of Optical Density (OD) at 450 nm in a kinetic reaction along 1 hour is measured with a microplate reader (Clariostar©, BMG). Results are calculated as the rate of increase in OD at 450 nm between two points in the linear zone over time. The percentage of mitochondrial complex I activity relative to basal conditions after the treatment with […] (PEP-1, H-[SEQ ID. NO. 2]-NH2) is represented in Table 9. These values represent the mean for at least three independent assays.

[2] = system: PER3 (period circadian clock 3); assay: Clock gene expression in synchronized HEKa, real time PCR: PER3; type: cell-based, Human; details: 0.5 mg/ml
Protocol: In Vitro Study of Clock Genes Expression in Synchronized Human Epidermal Keratinocytes from Adult (HEKa) Using Real Time PCR Arrays. HEKa cells (Life Technologies) are seeded at 3.0×10^5 cells/well in 12-well plates and incubated in culture medium, Keratinocyte growth medium supplemented with Mix C39016-CaCl2 solution (Promocell). For synchronization, cells were subjected to two alternative cycles of 12 hours each at 37° C. in 5% CO2 humidified air (day mode) and 33° C. in 5% CO2 humidified air (night mode). 12 hours after starting synchronization, cells are incubated with the synthetic peptide […] (PEP-1, H-[SEQ ID. NO. 2]-NH2) at 0.5 mg/ml in culture medium. Cells treated with medium alone are used as basal condition. At the end of synchronization, cell lysates are collected at two different times: 7:30 hour (early morning point) and 11:30 hour (midday point). […] After RNA elution, quantification and analysis of purity of RNA samples are performed with a nanodrop (Thermo). […] SYBR Green binds to double-stranded DNA molecules and emits fluorescence which is quantified, and the fluorescence intensity is proportional to the amount of the product in the PCR reaction. […] Fold change relative to the expression of the sample genes and reference genes is calculated using normalized expression (ΔΔ(Ct)) method using CFX Manager Software (BioRad).

Q: Which “Percentage of mitochondrial complex I activity relative to basal condition (%)” value ([1]; 0.1 mg/mL) does the source give for “H-Phe-Trp-Met-Lys-Arg-Lys-Arg-Val-Pro-NH2 (H-FWMKRKRVP-NH2) [PEP-1]” here?
A: 83.23%

Q: And the “Percentage of mitochondrial complex I activity relative to basal condition (%)” value ([1]; 0.5 mg/mL)?
A: 71.68%

Q: And the “Percentage of mitochondrial complex I activity relative to basal condition (%)” value ([1]; 1 mg/mL)?
A: 55.35%

Q: What about the “Fold induction respect to Basal condition at 7:30 h (%)” value [2] of the same substance?
A: 182.5%
